Results from patent publication US20240002127A1 (priority 2020, published 2024).

Assays:
[1] = target: human ACE2 peptidase domain (amino acids 1-615 of human ACE2 with C-terminal His-10 and Avi tags) (human) (UniProt Q9BYF1)
[2] = assay type: in vivo, rats; details: rat
Protocol: A single dose PK study of ALC-0315 and […] following intravenous (IV) bolus injection of a nanoparticle formulation in rats was conducted to assess the PK and metabolism of lipid excipients ALC-0315 and ALC-0159.

[3] = assay type: in vitro ADME, mice, rats, monkeys, humans; details: mouse, rat, monkey, human
Protocol: In vitro metabolism of ALC-0315 and ALC-0159 was evaluated in blood, liver microsomes, S9 fractions, and hepatocytes from mice, rats, monkeys, and humans. In vivo metabolism was examined in rat plasma, urine, faeces, and liver samples from the PK study. […] ALC-0315 and ALC-0159 are apparently metabolised by hydrolytic metabolism of the ester and amide functionalities, respectively, and this hydrolytic metabolism is observed across the species evaluated.

Chain of UniProt Q9BYF1 (Q9BYF1 18-615 limits assumed): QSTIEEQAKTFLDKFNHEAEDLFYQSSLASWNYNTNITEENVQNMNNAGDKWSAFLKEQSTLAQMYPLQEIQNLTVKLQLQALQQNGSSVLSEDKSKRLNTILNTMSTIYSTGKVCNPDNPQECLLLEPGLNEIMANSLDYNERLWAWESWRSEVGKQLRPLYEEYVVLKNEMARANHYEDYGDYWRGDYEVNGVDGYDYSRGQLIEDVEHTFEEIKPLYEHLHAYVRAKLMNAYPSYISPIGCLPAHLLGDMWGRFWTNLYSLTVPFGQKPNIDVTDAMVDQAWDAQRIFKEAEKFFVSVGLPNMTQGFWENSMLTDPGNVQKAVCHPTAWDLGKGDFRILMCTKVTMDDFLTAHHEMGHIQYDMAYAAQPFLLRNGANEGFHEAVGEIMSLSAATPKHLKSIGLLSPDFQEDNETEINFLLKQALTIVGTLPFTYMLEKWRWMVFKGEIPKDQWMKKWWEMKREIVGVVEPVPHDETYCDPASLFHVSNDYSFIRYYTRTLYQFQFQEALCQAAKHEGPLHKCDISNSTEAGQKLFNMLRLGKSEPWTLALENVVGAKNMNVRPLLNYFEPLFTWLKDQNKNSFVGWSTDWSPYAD

RBD-foldon trimer (trimerised SARS-CoV-2 spike receptor-binding domain fused to T4 fibritin foldon, (other; other documents disagree on this pair)
Kd [1]: 5 pM | fold difference of KD against the reported KD of monomeric RBD [1]: 1000 fold

CCCCCCCCC(CCCCCC)C(=O)OCCCCCCN(CCCCO)CCCCCCOC(=O)C(CCCCCC)CCCCCCCC (stereo not shown) [ALC-0315, ((4-hydroxybutyl)azanediyl)bis(hexane-6,1-diyl)bis(2-hexyldecanoate)]
eliminated unchanged in faeces [2]: little to no unchanged material | apparent terminal t½ in plasma and liver ([2]; IV): 140 to 190 h | drop of concentration in liver ([2]; IV, over 2 weeks): ~4 fold | drop of concentration in plasma ([2]; IV, over 2 weeks): approximately 7000 fold | metabolism in vitro and in vivo [3]: relatively slowly
